Assay results published in patent US9113629B2, “4-amino-6-(4-substituted-phenyl)-picolinates and 6-amino-2-(4-substituted-phenyl)-pyrimidine-4-carboxylates and their use as herbicides” (DOW AGROSCIENCES LLC, priority 2013, dated 2015).
Like-named read-outs stand apart in the source and are kept apart here.

Experiments:
[1] = system: Key Broadleaf Weed and Crop Species; assay: Post-emergent Test II herbicidal activity (Table 5); assay type: in vivo; conditions: post-emergence, 336 h, 14 days after application; for pest or weed control at 70 g/ha: application rate 70 g ai/ha; for pest or weed control at 140 g/ha: application rate 140 g ai/ha
How it was run: (§1)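 Plants grown in Metro-Mix 360 (pH 6.0–6.8) in a greenhouse (~15 h photoperiod, 23–29 °C day) to first or second true leaf stage, then sprayed with compound in acetone/DMSO/aqueous crop-oil-surfactant carrier at 187 L/ha by track sprayer. Injury visually scored 0–100% versus untreated plants after 14 d.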

[2] = system: Key Grass and Sedge Weeds as well as Grass Crops; assay: Post-emergent Test II herbicidal activity (Table 6); assay type: in vivo; conditions: post-emergence, 336 h; for pest or weed control at 70 g/ha: 70 g ai/ha; for pest or weed control at 140 g/ha: 140 g ai/ha
How it was run: as §1

[3] = ABUTH: velvetleaf (Abutilon theophrasti), read-out: Visual Growth Reduction (%) 14 Days After Application, ABUTH
[4] = AMARE: redroot pigweed (Amaranthus retroflexus), read-out: Visual Growth Reduction (%) 14 Days After Application, AMARE
[5] = BRSNN: oilseed-rape, canola (Brassica napus), read-out: Visual Growth Reduction (%) 14 Days After Application, BRSNN
[6] = CHEAL: lambsquarters (Chenopodium album), read-out: Visual Growth Reduction (%) 14 Days After Application, CHEAL
[7] = EPHHL: wild poinsettia (Euphorbia heterophylla), read-out: Visual Growth Reduction (%) 14 Days After Application, EPHHL
[8] = HELAN: sunflower (Helianthus annuus), read-out: Visual Growth Reduction (%) 14 Days After Application, HELAN
[9] = VIOTR: wild pansy (Viola tricolor), read-out: Visual Growth Reduction (%) 14 Days After Application, VIOTR
[10] = CYPES: yellow nutsedge (Cyperus esculentus), read-out: Visual Growth Reduction (%) 14 Days After Application, CYPES
[11] = DIGSA: crabgrass (Digitaria sanguinalis), read-out: Visual Growth Reduction (%) 14 Days After Application, DIGSA
[12] = ECHCG: barnyardgrass (Echinochloa crus-galli), read-out: Visual Growth Reduction (%) 14 Days After Application, ECHCG
[13] = ORYSA: rice (Oryza sativa), crop, read-out: Visual Growth Reduction (%) 14 Days After Application, ORYSA
[14] = SETFA: giant foxtail (Setaria faberi), read-out: Visual Growth Reduction (%) 14 Days After Application, SETFA
[15] = SORVU: grain sorghum (Sorghum vulgare), read-out: Visual Growth Reduction (%) 14 Days After Application, SORVU
[16] = TRZSS (wheat, Triticum aestivum), crop, read-out: Visual Growth Reduction (%) 14 Days After Application, TRZSS
[17] = ZEAMX: maize, corn (Zea mays), crop, read-out: Visual Growth Reduction (%) 14 Days After Application, ZEAMX

## COC(=O)c1nc(-c2ccc([N+](=O)[O-])cc2)c(F)c(N)c1Cl [Compound 95, methyl 4-amino-3-chloro-5-fluoro-6-(4-nitrophenyl)picolinate]
[1]; [3]
  pest or weed control at 70 g/ha: 60 to 74%
  pest or weed control at 140 g/ha: 75 to 84%
[1]; [4]
  pest or weed control at 70 g/ha: 95 to 100%
  pest or weed control at 140 g/ha: 95 to 100%
[1]; [5]
  pest or weed control at 70 g/ha: 0 to 29%
  pest or weed control at 140 g/ha: 30 to 44%
[1]; [6]
  pest or weed control at 70 g/ha: 95 to 100%
  pest or weed control at 140 g/ha: 95 to 100%
[1]; [7]
  pest or weed control at 70 g/ha: 95 to 100%
  pest or weed control at 140 g/ha: 95 to 100%
[1]; [8]
  pest or weed control at 70 g/ha: 95 to 100%
  pest or weed control at 140 g/ha: 95 to 100%
[1]; [9]
  pest or weed control at 70 g/ha: 0 to 29%
  pest or weed control at 140 g/ha: 0 to 29%
[2]; [10]
  pest or weed control at 70 g/ha: 45 to 59%
  pest or weed control at 140 g/ha: 75 to 84%
[2]; [11]
  pest or weed control at 70 g/ha: 0 to 29%
  pest or weed control at 140 g/ha: 0 to 29%
[2]; [12]
  pest or weed control at 70 g/ha: 85 to 94%
  pest or weed control at 140 g/ha: 95 to 100%
[2]; [13]
  pest or weed control at 70 g/ha: 0 to 29%
  pest or weed control at 140 g/ha: 0 to 29%
[2]; [14]
  pest or weed control at 70 g/ha: 0 to 29%
  pest or weed control at 140 g/ha: 0 to 29%
[2]; [15]
  pest or weed control at 70 g/ha: 60 to 74%
  pest or weed control at 140 g/ha: 60 to 74%
[2]; [16]
  pest or weed control at 70 g/ha: 0 to 29%
  pest or weed control at 140 g/ha: 0 to 29%
[2]; [17]
  pest or weed control at 70 g/ha: 0 to 29%
  pest or weed control at 140 g/ha: 0 to 29%

## Nc1cc(-c2ccc(Br)cc2)nc(C(=O)O)c1Cl [Compound 168]
[1]; [3]
  pest or weed control at 70 g/ha: 95 to 100%
  pest or weed control at 140 g/ha: 95 to 100%
[1]; [4]
  pest or weed control at 70 g/ha: 95 to 100%
  pest or weed control at 140 g/ha: 95 to 100%
[1]; [5]
  pest or weed control at 70 g/ha: 95 to 100%
  pest or weed control at 140 g/ha: 95 to 100%
[1]; [6]
  pest or weed control at 70 g/ha: 95 to 100%
  pest or weed control at 140 g/ha: 95 to 100%
[1]; [7]
  pest or weed control at 70 g/ha: 95 to 100%
  pest or weed control at 140 g/ha: 95 to 100%
[1]; [8]
  pest or weed control at 70 g/ha: 95 to 100%
  pest or weed control at 140 g/ha: 95 to 100%
[1]; [9]
  pest or weed control at 70 g/ha: 0 to 29%
  pest or weed control at 140 g/ha: 30 to 44%
[2]; [10]
  pest or weed control at 70 g/ha: 95 to 100%
  pest or weed control at 140 g/ha: 95 to 100%
[2]; [11]
  pest or weed control at 70 g/ha: 75 to 84%
  pest or weed control at 140 g/ha: 75 to 84%
[2]; [12]
  pest or weed control at 70 g/ha: 95 to 100%
  pest or weed control at 140 g/ha: 95 to 100%
[2]; [13]
  pest or weed control at 70 g/ha: 0 to 29%
  pest or weed control at 140 g/ha: 0 to 29%
[2]; [14]
  pest or weed control at 70 g/ha: 95 to 100%
  pest or weed control at 140 g/ha: 95 to 100%
[2]; [15]
  pest or weed control at 70 g/ha: 95 to 100%
  pest or weed control at 140 g/ha: 95 to 100%
[2]; [16]
  pest or weed control at 70 g/ha: 60 to 74%
  pest or weed control at 140 g/ha: 60 to 74%
[2]; [17]
  pest or weed control at 70 g/ha: 95 to 100%
  pest or weed control at 140 g/ha: 95 to 100%
